Experiment [1] has as its target T1, pY705-STAT3 in PBMC (Homo sapiens, UniProt P40763).
T1 construct: Cryopreserved Peripheral Blood Mononuclear Cells (PBMC) are from AllCells; host or cells: cryopreserved PBMC
Kind of experiment: MSD-pSTAT-PBMC Assay (pSTAT3, IL-6 stimulated). It is filed as cell-based. Conditions: compound 3 hrs, then 10 ng/mL IL-6 for 10 min. The procedure, abridged:
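Cells are preincubated with compound for 3 hrs, then stimulated for 10 min, IL-4 at 1 ng/mL driving STAT6 phosphorylation and IL-6 at 10 ng/mL driving STAT3. Phospho-STAT in lysates is quantified by MSD immunoassay, and IC50 is fitted after subtracting unstimulated wells.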

For experiment [2], the target named is T2, pY641-STAT6 in PBMC (Homo sapiens, UniProt P42226).
T2 construct: Cryopreserved Peripheral Blood Mononuclear Cells (PBMC) are from AllCells; host or cells: cryopreserved PBMC
T2 sequence (P42226 1-847): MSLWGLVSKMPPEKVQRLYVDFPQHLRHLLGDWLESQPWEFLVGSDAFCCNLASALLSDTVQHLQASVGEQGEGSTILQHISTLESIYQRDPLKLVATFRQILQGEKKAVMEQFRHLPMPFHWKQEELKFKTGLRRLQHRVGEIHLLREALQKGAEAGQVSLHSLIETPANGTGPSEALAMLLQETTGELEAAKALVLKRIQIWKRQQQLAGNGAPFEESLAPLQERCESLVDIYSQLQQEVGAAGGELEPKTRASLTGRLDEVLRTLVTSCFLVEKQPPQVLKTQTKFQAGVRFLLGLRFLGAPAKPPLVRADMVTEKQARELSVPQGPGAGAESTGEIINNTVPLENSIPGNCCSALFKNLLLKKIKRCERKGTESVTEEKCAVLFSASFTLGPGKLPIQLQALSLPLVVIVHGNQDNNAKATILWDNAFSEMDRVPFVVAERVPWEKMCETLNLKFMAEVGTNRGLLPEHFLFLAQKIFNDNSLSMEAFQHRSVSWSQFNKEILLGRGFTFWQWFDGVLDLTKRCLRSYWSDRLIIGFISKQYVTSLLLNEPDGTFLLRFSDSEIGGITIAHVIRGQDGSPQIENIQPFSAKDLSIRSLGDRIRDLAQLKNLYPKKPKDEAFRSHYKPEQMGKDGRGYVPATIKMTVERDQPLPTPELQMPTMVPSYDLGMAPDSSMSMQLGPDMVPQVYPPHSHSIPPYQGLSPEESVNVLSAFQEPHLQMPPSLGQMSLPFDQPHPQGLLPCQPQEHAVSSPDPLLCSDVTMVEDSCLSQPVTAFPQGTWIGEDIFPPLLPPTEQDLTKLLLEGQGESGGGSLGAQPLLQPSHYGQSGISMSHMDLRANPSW
Kind of experiment: MSD-pSTAT-PBMC Assay (pSTAT6, IL-4 stimulated). It is filed as cell-based. The settings on record: compound 3 hrs, then 1 ng/mL IL-4 for 10 min. The procedure, abridged: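 Thawed human PBMC rested overnight in IMDM/10% FBS, then got compound for 3 hrs before a 10 min cytokine pulse: 1 ng/mL IL-4 for pSTAT6, 10 ng/mL IL-6 for pSTAT3. Lysates went to MSD sandwich capture on total STAT6 or STAT3 with phospho-specific detection. IC50 came from background-subtracted, DMSO-normalized signal.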

[3] abbreviates: PBMC, Table 1114, read-out: pSTAT3.
[4] abbreviates: PBMC, Table 1114, read-out: pSTAT6.
Where [5] appears, read: PBMC, Table 115, read-out: STAT3.
Where [6] appears, read: PBMC, Table 115, read-out: STAT6.

Structures are written as SMILES. Read-outs that look alike come from different tables or passages of the source.

T1 sequence (P40763 whole entry): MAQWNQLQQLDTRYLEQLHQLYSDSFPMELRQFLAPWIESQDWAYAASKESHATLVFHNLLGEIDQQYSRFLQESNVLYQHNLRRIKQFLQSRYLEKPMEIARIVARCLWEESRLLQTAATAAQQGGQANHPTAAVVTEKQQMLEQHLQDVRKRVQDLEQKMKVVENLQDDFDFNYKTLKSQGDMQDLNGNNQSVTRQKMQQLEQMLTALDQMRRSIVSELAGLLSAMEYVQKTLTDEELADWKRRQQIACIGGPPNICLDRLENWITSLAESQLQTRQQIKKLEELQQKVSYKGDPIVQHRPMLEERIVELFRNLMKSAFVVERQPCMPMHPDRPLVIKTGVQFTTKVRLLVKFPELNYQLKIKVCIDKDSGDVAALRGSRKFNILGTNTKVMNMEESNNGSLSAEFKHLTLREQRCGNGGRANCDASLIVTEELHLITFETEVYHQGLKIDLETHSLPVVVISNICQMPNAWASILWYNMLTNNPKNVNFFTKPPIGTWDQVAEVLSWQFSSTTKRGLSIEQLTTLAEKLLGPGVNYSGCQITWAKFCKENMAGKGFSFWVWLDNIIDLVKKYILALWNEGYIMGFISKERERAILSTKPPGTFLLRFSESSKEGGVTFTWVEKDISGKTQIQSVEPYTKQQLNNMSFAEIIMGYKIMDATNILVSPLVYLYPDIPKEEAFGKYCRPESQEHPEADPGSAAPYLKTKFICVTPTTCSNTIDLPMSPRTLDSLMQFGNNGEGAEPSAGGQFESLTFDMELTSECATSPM

With `CC(C)(CO)C(=O)SCCOP(=O)(OCCSC(=O)C(C)(C)CO)C(F)(F)c1ccc2sc(C(=O)N[C@H]3CCCC[C@H]4CC[C@@H](C(=O)N5C[C@@H](C#N)[C@H](c6ccccc6)C5)N4C3=O)cc2c1` (single isomer, unassigned) [Compound 200, S,S′-(((((2-(((3S,6S,10a S)-3-((3S,4R or 3R,4S)-3-cyano-4-phenylpyrrolidine-1-carbonyl)-5-oxodecahydro-pyrrolo [1,2-a]azocin-6-yl)carbamoyl)benzo[b]thiophen-5-yl)difluoromethyl)phosphoryl)bis(oxy))bis(ethane-2,1-diyl)) bis(3-hydroxy-2,2-dimethyl-propanethioate)], the IC50 in experiment [1] (setting [3]) is 1000 to 3000 nM; in experiment [2] (setting [4]), over 3000 nM.

For `CC(C)(O)CC(=O)SCCOP(=O)(OCCSC(=O)CC(C)(C)O)C(F)(F)c1ccc2sc(C(=O)N[C@H]3CCCC[C@H]4CC[C@@H](C(=O)N5C[C@@H](C#N)[C@H](c6ccccc6)C5)N4C3=O)cc2c1` (single isomer, unassigned) [Compound 202, S,S′-(((((2-(((3S,6S,10a S)-3-((3S,4R or 3R,4S)-3-cyano-4-phenylpyrrolidine-1-carbonyl)-5-oxodecahydro-pyrrolo [1,2-a]azocin-6-yl)carbamoyl)benzo [b]thiophen-5-yl)difluoromethyl)phosphoryl)bis(oxy))bis(ethane-2,1-diyl)) bis(3-hydroxy-3-methylbutane thioate)], the IC50 was over 3000 nM in experiment [1] (setting [3]) and 1000 to 3000 nM in experiment [2] (setting [4]).

For the compound `CCCOC(=O)[C@H](C)NP(=O)(Oc1ccccc1)C(F)c1ccc2sc(C(=O)N[C@H]3CCCC[C@H]4CC[C@@H](C(=O)N5C[C@@H](C#N)[C@H](c6ccccc6)C5)N4C3=O)cc2c1` (single isomer, unassigned) [Compound 315], the IC50 in experiment [1] (setting [5]) was over 3000 nM; in experiment [2] (STAT6, PBMC, Table 115) it was under 100 nM.

Consider `CCCOC(=O)[C@H](C)NP(=O)(Oc1ccccc1)C(F)c1ccc2sc(C(=O)N[C@H]3CCCC[C@H]4CC[C@@H](C(=O)N5C[C@@H](c6cccc(OC)c6)[C@H](C#N)C56CC6)N4C3=O)cc2c1` (single isomer, unassigned) [Compound 326], for which the IC50 in experiment [1] (setting [5]) was over 3000 nM; in experiment [2] (STAT6, PBMC, Table 115) it was under 100 nM.

In the case of `CCCOC(=O)[C@H](C)NP(=O)(Oc1ccccc1)[C@@H](F)c1ccc2sc(C(=O)N[C@H]3CCCC[C@H]4CC[C@@H](C(=O)N5C[C@@H](C#N)[C@H](c6ccccc6)C5)N4C3=O)cc2c1` (single isomer, unassigned) [Compound 343], the IC50 was over 3000 nM in experiment [1] (setting [5]) and under 100 nM in experiment [2] (STAT6, PBMC, Table 115).

Regarding `CCCOC(=O)[C@H](C)NP(=O)(Oc1ccccc1)[C@H](F)c1ccc2sc(C(=O)N[C@H]3CCC[C@H]4CC[C@@H](C(=O)N5C[C@H](c6cccnc6)[C@@H](C#N)C56CC6)N4C3=O)cc2c1` (single isomer, unassigned) [Compound 354], the IC50 in experiment [1] (setting [5]) was over 3000 nM; in experiment [2] (STAT6, PBMC, Table 115), under 100 nM.

Take `N#C[C@H]1CN(C(=O)[C@@H]2CC[C@@H]3CCCC[C@H](NC(=O)c4ccc5ccc(C(F)(F)P(=O)(OCCSC(=O)CC6COC6)OCCSC(=O)CC6COC6)cc5c4)C(=O)N32)C[C@@H]1c1cc[nH]c(=O)c1` (single isomer, unassigned) [Compound 408]: the IC50 is over 3000 nM in experiment [1] (setting [5]) and 100 to 1000 nM in experiment [2] (setting [6]).

As for `CCCOC(=O)[C@H](C)N[P@](=O)(Oc1ccccc1)[C@@H](F)c1ccc2sc(C(=O)N[C@H]3CCC[C@H]4CC[C@@H](C(=O)N5CC(c6cnccc6N(C)C)C5)N4C3=O)cc2c1` (single isomer, unassigned) [Compound 941], the IC50 in experiment [1] (setting [5]) is under 100 nM; in experiment [2] (STAT6, PBMC, Table 115) it was 1000 to 3000 nM.

In the case of `CCCOC(=O)[C@H](C)NP(=O)(Oc1ccccc1)[C@H](F)c1ccc2sc(C(=O)N[C@H]3CCC[C@H]4CC[C@@H](C(=O)N5CC(c6cnccc6N(C)C)C5)N4C3=O)cc2c1` (single isomer, unassigned) [Compound 954], the IC50 was under 100 nM in experiment [1] (setting [5]) and over 3000 nM in experiment [2] (STAT6, PBMC, Table 115).

As for `CC(C)CC(=O)SCCOP(=O)(Oc1cccc(C#N)c1)C(F)(F)c1ccc2sc(C(=O)N[C@H]3CCCC[C@H]4CC[C@@H](C(=O)N5C[C@H](c6ccccc6)[C@@H](C#N)C5)N4C3=O)cc2c1` (single isomer, unassigned) [Compound 1007], the IC50 in experiment [1] (STAT3, PBMC, Table 115) was over 3000 nM; in experiment [2] (STAT6, PBMC, Table 115) it was 100 to 1000 nM.

With `COCC(=O)SCCOP(=O)(OCCSC(=O)COC)C(F)(F)c1ccc2sc(C(=O)N[C@H]3CCCC[C@H]4CC[C@@H](C(=O)N5C[C@@H](C#N)[C@H](c6cc[nH]c(=O)c6)C5)N4C3=O)cc2c1` (single isomer, unassigned) [Compound 1010], the IC50 in experiment [1] (setting [5]) lay within 1000 to 3000 nM; in experiment [2] (setting [6]) it was 100 to 1000 nM.

Turning to `CCCOC(=O)[C@H](C)N[P@](=O)(Oc1ccccc1)[C@H](F)c1ccc2sc(C(=O)N[C@H]3CCC[C@H]4CC[C@@H](C(=O)N5CC(c6cnccc6N6CCOCC6)C5)N4C3=O)cc2c1` (single isomer, unassigned) [Compound 1045], the IC50 is under 100 nM in experiment [1] (setting [5]) and over 3000 nM in experiment [2] (STAT6, PBMC, Table 115).

With `COc1ccncc1C1CN(C(=O)[C@@H]2CC[C@@H]3CCC[C@H](NC(=O)c4cc5cc([C@@H](F)[P@](=O)(N[C@@H](C)C(=O)OCc6ccccc6)Oc6ccccc6)ccc5s4)C(=O)N32)C1` (single isomer, unassigned) [Compound 1055], the IC50 was under 100 nM in experiment [1] (setting [5]) and over 3000 nM in experiment [2] (STAT6, PBMC, Table 115).

With `COCCC(=O)SCCOP(=O)(OCCSC(=O)CCOC)C(F)(F)c1ccc2sc(C(=O)N[C@H]3CCCC[C@H]4CC[C@@H](C(=O)N5C[C@@H](C#N)[C@H](c6cc[nH]c(=O)c6)C5)N4C3=O)cc2c1` (single isomer, unassigned) [Compound 1083], the IC50 in experiment [1] (setting [5]) was 1000 to 3000 nM; in experiment [2] (setting [6]), 100 to 1000 nM.

For the compound `CC(C)CC(=O)SCCOP(=O)(OCOC(=O)OC1CCOCC1)C(F)(F)c1ccc2sc(C(=O)N[C@H]3CCCC[C@H]4CC[C@@H](C(=O)N5C[C@H](c6cc[nH]c(=O)c6)[C@@H](C#N)C5)N4C3=O)cc2c1` (single isomer, unassigned) [Compound 1085], the IC50 in experiment [1] (setting [5]) is 100 to 1000 nM; in experiment [2] (setting [6]), under 100 nM.

`CC(C)OC(=O)OCOP(=O)(OCOC(=O)OC(C)C)C(F)(F)c1ccc2ccc(C(=O)N[C@H]3CCCC[C@H]4CC[C@@H](C(=O)N5C[C@H](c6cc[nH]c(=O)c6)[C@@H](C#N)C5)N4C3=O)cc2c1` (single isomer, unassigned) [Compound 1087]: the IC50 in experiment [1] (setting [5]) is 100 to 1000 nM; in experiment [2] (setting [6]), under 100 nM.

Turning to `CC(C)OC(=O)OCOP(=O)(OCOC(=O)OC(C)C)C(F)(F)c1ccc2ccc(C(=O)N[C@H]3CCCC[C@H]4CC[C@@H](C(=O)N5C[C@@H](C#N)[C@H](c6cc[nH]c(=O)c6)C5)N4C3=O)cc2c1` (single isomer, unassigned) [Compound 1088], the IC50 in experiment [1] (setting [5]) is 1000 to 3000 nM; in experiment [2] (setting [6]), under 100 nM.

Consider `CC(C)CC(=O)SCCOP(=O)(OCCSC(=O)CC(C)C)[C@@H](F)c1ccc2sc(C(=O)N[C@H]3CCCC[C@H]4CC[C@@H](C(=O)N5C[C@@H](C#N)[C@H](c6cc[nH]c(=O)c6)C5)N4C3=O)cc2c1` (single isomer, unassigned) [Compound 1090], for which the IC50 in experiment [1] (setting [5]) lay in the range of 1000 to 3000 nM; in experiment [2] (setting [6]) it was 100 to 1000 nM.

Regarding `CC(C)(CO)C(=O)SCCOP(=O)(Oc1ccccc1)C(F)(F)c1ccc2sc(C(=O)N[C@H]3CCCC[C@H]4CC[C@@H](C(=O)N5C[C@@H](C#N)[C@H](c6cc[nH]c(=O)c6)C5)N4C3=O)cc2c1` (single isomer, unassigned) [Compound 1091], the IC50 in experiment [1] (setting [5]) was over 3000 nM; in experiment [2] (STAT6, PBMC, Table 115), over 3000 nM.

Take `CC(C)CC(=O)SCCOP(=O)(OCOC(=O)OC1COC1)C(F)(F)c1ccc2sc(C(=O)N[C@H]3CCCC[C@H]4CC[C@@H](C(=O)N5C[C@H](c6cc[nH]c(=O)c6)[C@@H](C#N)C5)N4C3=O)cc2c1` (single isomer, unassigned) [Compound 1093]: the IC50 in experiment [1] (setting [5]) is over 3000 nM; in experiment [2] (setting [6]) it was 100 to 1000 nM.

(Values after patent US20250215029A1 (Recludix Pharma, Inc., priority 2022, published 2025).)
